Consider 18 compounds from US20250236639A1, “NEUROACTIVE STEROIDS AND COMPOSITIONS THEREOF” (Sage Therapeutics, Inc., priority 2019, published 2025).

The target in the experiment is GABAA receptor. Briefly: Steroid inhibition of [35S]-TBPS binding, rat brain cortical membranes. The note with it: 3 nM [35S]-TBPS, in the presence of 5 mM GABA. The procedure: [^35S]-t-Butylbicyclophosphorothionate (TBPS) binding assays using rat brain cortical membranes in the presence of 5 mM GABA has been described (Gee et al, J. Pharmacol. Exp. Ther. 1987, 241, 346-353; Hawkinson et al, Mol. Pharmacol. 1994, 46, 977-985; Lewin, A. H et al., Mol. Pharmacol. 1989, 35, 189-194).
Briefly, cortices are rapidly removed following decapitation of carbon dioxide-anesthetized Sprague-Dawley rats (200-250 g). The cortices are homogenized in 10 volumes of ice-cold 0.32 M sucrose using a glass/teflon homogenizer and centrifuged at 1500×g for 10 min at 4° C. The resultant supernatants are centrifuged at 10,000×g for 20 min at 4° C. to obtain the P2 pellets. The P2 pellets are resuspended in 200 mM NaCl/50 mM Na—K phosphate pH 7.4 buffer and centrifuged at 10,000×g for 10 min at 4° C. This washing procedure is repeated twice and the pellets are resuspended in 10 volumes of buffer. Aliquots ([…]) of the membrane suspensions are incubated with 3 nM [^35S]-TBPS and […] aliquots of test drug dissolved in dimethyl sulfoxide (DMSO) (final 0.5%) in the presence of 5 mM GABA. The incubation is brought to a final volume of 1.0 mL with buffer. Nonspecific binding is determined in the presence of […] and ranged from 15 to 25%. Following a 90 min incubation at room temp, the assays are terminated by filtration through glass fiber filters (Schleicher and Schuell No. 32) using a cell harvester (Brandel) and rinsed three times with ice-cold buffer. Filter bound radioactivity is measured by liquid scintillation spectrometry. Non-linear curve fitting of the overall data for each drug averaged for each concentration is done using Prism (GraphPad). […] The concentration of test compound producing 50% inhibition (IC50) of specific binding and the maximal extent of inhibition (Imax) are determined for the individual experiments with the same model used for the overall data and then the means±SEM.s of the individual experiments are calculated.
Various compounds are or can be screened to determine their potential as modulators of [^35S]-TBPS binding in vitro. These assays are or can be performed in accordance with the above
As for `CC[C@]12CC[C@@](C)(O)C[C@H]1CC[C@H]1[C@@H]3CC[C@H]([C@@](C)(Cn4cc(C#N)cn4)OC)[C@@]3(C)CC[C@@H]12` [Compound 5, 1-((S)-2-((3R,5R,8S,9S,10S,13S,14S,17S)-10-ethyl-3-hydroxy-3,13-dimethylhexadecahydro-1H-cyclopenta[a]phenanthren-17-yl)-2-methoxypropyl)-1H-pyrazole-4-carbonitrile], the 50% inhibitory concentration (IC50) is < 100 nM.

For the compound `COC[C@@]1(O)CC[C@H]2[C@H](CC[C@@H]3[C@@H]2CC[C@]2(C)[C@@H](C(C)(Cn4cc(C#N)cn4)OC)CC[C@@H]32)C1` (stereo in doubt) [Compound 32, 1-((R)-2-((3R,5R,8R,9R,10S,13S,14S,17S)-3-hydroxy-3-(methoxymethyl)-13-methylhexadecahydro-1H-cyclopenta[a]phenanthren-17-yl)-2-methoxypropyl)-1H-pyrazole-4-carbonitrile], the IC50 lay within 100 to 1000 nM.

On to `C[C@@]1(O)CC[C@H]2[C@H](CC[C@@H]3[C@@H]2CC[C@@]2(C)[C@H]3CC[C@@H]2[C@@](C)(O)Cn2cc(C#N)cn2)C1` [Compound 1, 1-((R)-2-hydroxy-2-((3R,5R,8R,9R,10S,13S,14S,17S)-3-hydroxy-3,13-dimethylhexadecahydro-1H-cyclopenta[a]phenanthren-17-yl)propyl)-1H-pyrazole-4-carbonitrile], for which the half-maximal inhibitory concentration (IC50) is < 100 nM.

For `CC(=O)c1cnn(C[C@@](C)(O)[C@H]2CC[C@H]3[C@@H]4CC[C@@H]5C[C@](C)(O)CC[C@@H]5[C@H]4CC[C@@]32C)c1` [Compound 31, 1-(1-((S)-2-hydroxy-2-((3R,5R,8R,9R,10S,13S,14S,17S)-3-hydroxy-3,13-dimethylhexadecahydro-1H-cyclopenta[a]phenanthren-17-yl)propyl)-1H-pyrazol-4-yl)ethanone], the IC50 was < 100 nM.

With `CCOC[C@@]1(O)CC[C@@]2(C)[C@H](CC[C@@H]3[C@@H]2CC[C@@]2(C)[C@H]3CC[C@@H]2[C@](C)(O)Cn2cc(C#N)cn2)C1` [Compound 24, 1-((S)-2-((3R,5R,8R,9S,10S,13S,14S,17S)-3-(ethoxymethyl)-3-hydroxy-10,13-dimethylhexadecahydro-1H-cyclopenta[a]phenanthren-17-yl)-2-hydroxypropyl)-1H-pyrazole-4-carbonitrile], the half-maximal inhibitory concentration (IC50) is < 100 nM.

Turning to `COC[C@@H]1C[C@H]2[C@H](CC[C@@H]3[C@@H]2CC[C@@]2(C)[C@H]3CC[C@@H]2[C@](C)(O)Cn2cc(C#N)cn2)C[C@]1(C)O` [Compound 58A, 1-((S)-2-hydroxy-2-((2S,3S,5R,8R,9R,10S,13S,14S,17S)-3-hydroxy-2-(methoxymethyl)-3,13-dimethylhexadecahydro-1H-cyclopenta[a]phenanthren-17-yl)propyl)-1H-pyrazole-4-carbonitrile], the IC50 is < 100 nM.

For `CCC[C@@]1(O)CC[C@H]2[C@H](CC[C@@H]3[C@@H]2CC[C@@]2(C)[C@H]3CC[C@@H]2[C@](C)(O)Cn2ccc(C#N)n2)C1` [Compound 22, 1-((S)-2-hydroxy-2-((3R,5R,8R,9R,10S,13S,14S,17S)-3-hydroxy-13-methyl-3-propylhexadecahydro-1H-cyclopenta[a]phenanthren-17-yl)propyl)-1H-pyrazole-3-carbonitrile], the IC50 was < 100 nM.

For the compound `COC[C@@]1(O)CC[C@H]2[C@@H](CC[C@@H]3[C@@H]2CC[C@@]2(C)[C@H]3CC[C@@H]2[C@@](C)(O)Cn2cc(C#N)cn2)C1` [Compound 20, 1-((R)-2-hydroxy-2-((3R,5S,8R,9R,10S,13S,14S,17S)-3-hydroxy-3-(methoxymethyl)-13-methylhexadecahydro-1H-cyclopenta[a]phenanthren-17-yl)propyl)-1H-pyrazole-4-carbonitrile], the IC50 lay within 100 to 1000 nM.

In the case of `CC[C@]12CC[C@@](C)(O)C[C@H]1CC[C@H]1[C@@H]3CC[C@H]([C@](C)(O)Cn4cc(C#N)cn4)[C@@]3(C)CC[C@@H]12` [Compound 3, 1-((S)-2-((3R,5R,8S,9S,10S,13S,14S,17S)-10-ethyl-3-hydroxy-3,13-dimethylhexadecahydro-1H-cyclopenta[a]phenanthren-17-yl)-2-hydroxypropyl)-1H-pyrazole-4-carbonitrile], the IC50 is < 100 nM.

Take `CCC[C@@]1(O)CC[C@@]2(C)[C@H](CC[C@@H]3[C@@H]2CC[C@@]2(C)[C@H]3CC[C@@H]2[C@](C)(O)Cn2cc(C#N)cn2)C1` [Compound 26, 1-((S)-2-hydroxy-2-((3R,5R,8R,9S,10S,13S,14S,17S)-3-hydroxy-10,13-dimethyl-3-propylhexadecahydro-1H-cyclopenta[a]phenanthren-17-yl)propyl)-1H-pyrazole-4-carbonitrile]: the IC50 is < 100 nM.

`COC[C@@]1(O)CC[C@H]2[C@H](CC[C@@H]3[C@@H]2CC[C@]2(C)[C@@H](C(C)(C)Cn4cc(C#N)cn4)CC[C@@H]32)C1` [Compound 56, 1-(2-((3R,5R,8R,9R,10S,13S,14S,17S)-3-hydroxy-3-(methoxymethyl)-13-methylhexadecahydro-1H-cyclopenta[a]phenanthren-17-yl)-2-methylpropyl)-1H-pyrazole-4-carbonitrile]: the IC50 was < 100 nM.

Consider `CO[C@@H]1C[C@H]2[C@H](CC[C@@H]3[C@@H]2CC[C@@]2(C)[C@H]3CC[C@@H]2[C@](C)(O)Cn2cc(C#N)cn2)C[C@]1(C)O` [Compound 60, 1-((S)-2-hydroxy-2-((2R,3S,5R,8R,9R,10S,13S,14S,17S)-3-hydroxy-2-methoxy-3,13-dimethylhexadecahydro-1H-cyclopenta[a]phenanthren-17-yl)propyl)-1H-pyrazole-4-carbonitrile], for which the concentration for half-maximal inhibition (IC50) is < 100 nM.

Consider `C[C@H]1C[C@H]2[C@H](CC[C@@H]3[C@@H]2CC[C@@]2(C)[C@H]3CC[C@@H]2[C@](C)(O)Cn2cc(C#N)cn2)C[C@]1(C)O` [Compound 50, 1-((S)-2-hydroxy-2-((2S,3S,5R,8R,9R,10S,13S,14S,17S)-3-hydroxy-2,3,13-trimethylhexadecahydro-1H-cyclopenta[a]phenanthren-17-yl)propyl)-1H-pyrazole-4-carbonitrile], for which the half-inhibitory concentration (IC50) is < 100 nM.

Regarding `C[C@H]1C[C@H]2[C@H](CC[C@@H]3[C@@H]2CC[C@@]2(C)[C@H]3CC[C@@H]2[C@@](C)(O)Cn2cc(C#N)cn2)C[C@]1(C)O` [Compound 51, 1-((R)-2-hydroxy-2-((2S,3S,5R,8R,9R,10S,13S,14S,17S)-3-hydroxy-2,3,13-trimethylhexadecahydro-1H-cyclopenta[a]phenanthren-17-yl)propyl)-1H-pyrazole-4-carbonitrile], the concentration for half-maximal inhibition (IC50) is < 100 nM.

For `COC[C@@]1(O)CC[C@H]2[C@H](CC[C@@H]3[C@@H]2CC[C@]2(C)[C@@H](C(C)(Cn4cc(C#N)cn4)OC)CC[C@@H]32)C1` (stereo in doubt) [Compound 33, 1-[(2S)-2-[(1S,3aS,3bR,5aR,7R,9aS,9bR,11aS)-7-hydroxy-7-(methoxymethyl)-11a-methyl-hexadecahydro-1H-cyclopenta[a]phenanthren-1-yl]-2-methoxypropyl]-1H-pyrazole-4-carbonitrile], the IC50 was 100 to 1000 nM.

Take `COC[C@H]1C[C@H]2[C@H](CC[C@@H]3[C@@H]2CC[C@@]2(C)[C@H]3CC[C@@H]2[C@@](C)(O)Cn2cc(C#N)cn2)C[C@]1(C)O` [Compound 59, 1-((R)-2-hydroxy-2-((2R,3S,5R,8R,9R,10S,13S,14S,17S)-3-hydroxy-2-(methoxymethyl)-3,13-dimethylhexadecahydro-1H-cyclopenta[a]phenanthren-17-yl)propyl)-1H-pyrazole-4-carbonitrile]: the half-inhibitory concentration (IC50) is 100 to 1000 nM.

For `C[C@@H]1C[C@H]2[C@H](CC[C@@H]3[C@@H]2CC[C@@]2(C)[C@H]3CC[C@@H]2[C@](C)(O)Cn2cc(C#N)cn2)C[C@]1(C)O` [Compound 52, 1-((S)-2-hydroxy-2-((2R,3S,5R,8R,9R,10S,13S,14S,17S)-3-hydroxy-2,3,13-trimethylhexadecahydro-1H-cyclopenta[a]phenanthren-17-yl)propyl)-1H-pyrazole-4-carbonitrile], the IC50 was < 100 nM.

Consider `CC[C@]12CC[C@](O)(COC)C[C@H]1CC[C@H]1[C@@H]3CC[C@H]([C@](C)(O)Cn4cc(C#N)cn4)[C@@]3(C)CC[C@@H]12` [Compound 42, 1-((S)-2-((3R,5R,8S,9S,10S,13S,14S,17S)-10-ethyl-3-hydroxy-3-(methoxymethyl)-13-methylhexadecahydro-1H-cyclopenta[a]phenanthren-17-yl)-2-hydroxypropyl)-1H-pyrazole-4-carbonitrile], for which the half-inhibitory concentration (IC50) was < 100 nM.

A word on the IC50: it is the point on the concentration scale where inhibition reaches its midpoint.
